From PMC7589200, “Identification of Putative Non-Substrate-Based XT-I Inhibitors by Natural Product Library Screening” (Biomolecules, 2020)
“And” between values parts separate entries of the source, which are not always exact repeats. Equal entries are not always repeated.

Legend:
[1] = test system: TGFB1 mRNA expression; assay: TGFB1 mRNA expression in NHDFs by qRT-PCR; assay type: cell-based, human; conditions: 2 μM in the presence of TGF-β1 (5 μg/L), 48 h
Procedure: (§1) A former established cell culture model was utilized to investigate the effect of putative XT-I inhibitors on NHDFs. The inhibition studies were carried out with final inhibitor concentrations of 0.5, 1.0, 2.0 or 4.0 μM diluted in fully supplemented DMEM. In brief, unless otherwise stated, NHDFs were cultivated with a low density of 50 cells per mm^2 on a hard tissue culture substrate (100 × 20 mm dish) in fully supplemented DMEM with or without additional TGF-β1 (5 μg/L) for 24 h, promoting their transdifferentiation into proto-myofibroblasts. Thereafter, cells were treated with celastrol or amphotericin B in the presence or absence of TGF-β1 (5 μg/L) for an additional 48 h. Negative controls treated with solvent only were included for every sampling time. The final DMSO content of 0.04% (v/v) was kept constant in all inhibition experiments.
(§2) The RNA extraction from cell lysates and cDNA synthesis for mRNA and miRNA expression analysis were performed as described previously.
(§3) Quantitative real-time polymerase chain reaction (qRT-PCR) analysis using a LightCycler 480 Instrument II system (Roche, Basel, Swiss) was performed as previously described. […] The geometric mean of the expression levels of the housekeeping genes SDHA, RPL13A and B2M were calculated for expression normalization. The relative target gene mRNA expressions were determined by the ΔΔCT method considering the PCR efficiency. […]

[2] = test system: fibroblasts; conditions: in vitro, osteoblasts and fibroblasts; cited from earlier work
[3] = test system: COL1A1 mRNA expression; assay: COL1A1 mRNA expression in NHDFs by qRT-PCR; assay type: cell-based, human; conditions: 48 h
Procedure: as §1, §2, §3

[4] = test system: SMAD7 mRNA expression; assay: SMAD7 mRNA expression in NHDFs by qRT-PCR; assay type: cell-based, human; conditions: 2 μM in the presence of TGF-β1 (5 μg/L), 48 h
Procedure: as §1, with “experiments. […]” for “experiments.”
as §3

SMILES: C[C@@H]1[C@H](O)[C@@H](C)/C=C/C=C/C=C/C=C/C=C/C=C/C=C/[C@H](O[C@@H]2O[C@H](C)[C@@H](O)[C@H](N)[C@@H]2O)C[C@@H]2O[C@](O)(C[C@@H](O)C[C@@H](O)[C@H](O)CC[C@@H](O)C[C@@H](O)CC(=O)O[C@H]1C)C[C@H](O)[C@H]2C(=O)O [Compound 17, Amphotericin B]
- TGFB1 mRNA expression relative to TGF-β1 only [1]: 0.8 ± 0.04 fold
- concentration causing sublethal cytotoxicity [2]: 5000 ng/mL and 10000 ng/mL
- concentration lethal to fibroblasts [2]: 100000 ng/mL
- TGF-β1-mediated COL1A1 mRNA expression relative to TGF-β1 only ([3]; 2.0 μM with TGF-β1 (5 μg/L)): 0.8 ± 0.06 fold
- COL1A1 mRNA expression compared to controls treated with DMSO ([3]; amphotericin B treatment, not statistically significant (p = 0.2)): 0.7 ± 0.1 fold
- SMAD7 mRNA expression relative to TGF-β1 only [4]: 1.3 ± 0.1 fold
